# Test results: BindingDB's records for doi:10.1093/toxsci/47.2.181 (University of Texas M. D. Anderson Cancer Center, 1999)
# Target: T1, Solute carrier family 22 member 2 (Rattus norvegicus, UniProt Q9R0W2)
# T1 sequence (Q9R0W2 whole entry): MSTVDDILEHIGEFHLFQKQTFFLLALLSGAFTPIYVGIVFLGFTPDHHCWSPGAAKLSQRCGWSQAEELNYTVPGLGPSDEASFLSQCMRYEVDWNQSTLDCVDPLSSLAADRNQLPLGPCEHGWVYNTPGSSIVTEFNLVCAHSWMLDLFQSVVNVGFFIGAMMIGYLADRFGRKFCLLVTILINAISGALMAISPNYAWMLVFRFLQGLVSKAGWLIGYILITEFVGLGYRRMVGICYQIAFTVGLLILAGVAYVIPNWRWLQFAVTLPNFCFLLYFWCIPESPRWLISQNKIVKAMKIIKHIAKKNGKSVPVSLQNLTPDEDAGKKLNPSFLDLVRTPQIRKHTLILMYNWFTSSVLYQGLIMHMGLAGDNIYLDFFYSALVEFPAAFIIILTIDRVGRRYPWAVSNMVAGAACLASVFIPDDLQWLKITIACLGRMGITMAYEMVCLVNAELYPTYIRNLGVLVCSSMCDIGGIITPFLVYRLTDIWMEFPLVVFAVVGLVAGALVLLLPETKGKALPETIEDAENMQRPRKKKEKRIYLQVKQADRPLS
# Assay: TP_TRANSPORTER: inhibition of TEA uptake (apical to cell) in OCT2-expressing NIH3T3 cells
smiles,measurement,value
[NH2][Pt]([NH2])([Cl])[Cl] [cis-Platinum diamminedichloride],Ki,925 µM
